Data on one compound can be found in PMC7727793, “Aggregation Behavior, Antibacterial Activity and Biocompatibility of Catanionic Assemblies Based on Amino Acid-Derived Surfactants” (International Journal of Molecular Sciences, 2020).

Structures are written as SMILES. “Also recorded” adds a separate entry of the source.

One series can be described thus: Solubility in water. It is filed as physicochemical.
Series [1] has as its system all microorganisms tested. Description: Broth microdilution MIC, statement for all microorganisms tested. It is filed as cell-based. Here is the method: Antibacterial assays were conducted in vitro using the broth microdilution method. The minimum inhibitory concentration (MIC) is the smallest concentration of antibacterial agent at which bacterial growth is not observed. MIC values were determined for 4 Gram-positive bacteria (methicillin-resistant Staphylococcus aureus ATCC 43300 (MRSA), Bacillus subtilis ATCC 6633, Kocuria rhizophila 9341, Staphylococcus epidermidis ATCC 12228), 3 Gram-negative bacteria (Klebsiella pneumoniae ATCC 4532, Pseudomonas aeruginosa ATCC 27853, Escherichia coli ATCC 8739) and the fungal strain, Candida albicans ATCC 10231. Frozen stocks of bacteria were incubated on Muller Hinton agar plates for 24 h at 37 °C. From this culture, a bacterial suspension of 1 × 10^6 colony forming units CFU/mL was prepared in MHB (pH = 7.3). Two dilutions of pure surfactants and their binary mixtures were prepared in MH broth to obtain a final concentration ranging from 4 to 454 μM in the microtiter plates.
Then, 10 μL of nutrient broth culture of each microorganism was added to achieve a final density of ca. 5 × 10^5 CFU/mL. The cultures were incubated for 24 h at 37 °C. Every assay was repeated three times.
A general note: Dilution methods test growth across graded concentrations, often in twofold steps.

Take `CCCCCCCCCCCC(=O)N[C@@H](CCCCNC(C)=O)C(=O)O` [C12C3L, N^α-lauroyl-N^εacetyl lysine]: in the series “Solubility in water”, the Solubility in water result is “too low to determine a CMC; also recorded: not soluble in water”. In addition, in series [1] (K. rhizophila, B. subtilis, S. epidermidis, S. aureus, K. pneumoniae, E. coli, P. aeruginosa, C. albicans, higher concentrations precipitated, read-out: MIC for all microorganisms tested), the MIC (as a rule, the least concentration at which growth counts as inhibited) was over 113 µM. For the same compound, the “Antibacterial activity (in words)” value in series [1] (tested microorganisms) is given as “did not show activity”.
